Measured values published in patent publication US8501936B2 (priority 2009, dated 2013).

Legend:
human JAK2 = human JAK2 (Homo sapiens (Human), UniProt O60674); conditions: read-out: JAK2 IC50
human FAK = human FAK (Homo sapiens (Human), UniProt Q05397); conditions: read-out: FAK IC50
Chain of human FAK (Q05397 whole entry): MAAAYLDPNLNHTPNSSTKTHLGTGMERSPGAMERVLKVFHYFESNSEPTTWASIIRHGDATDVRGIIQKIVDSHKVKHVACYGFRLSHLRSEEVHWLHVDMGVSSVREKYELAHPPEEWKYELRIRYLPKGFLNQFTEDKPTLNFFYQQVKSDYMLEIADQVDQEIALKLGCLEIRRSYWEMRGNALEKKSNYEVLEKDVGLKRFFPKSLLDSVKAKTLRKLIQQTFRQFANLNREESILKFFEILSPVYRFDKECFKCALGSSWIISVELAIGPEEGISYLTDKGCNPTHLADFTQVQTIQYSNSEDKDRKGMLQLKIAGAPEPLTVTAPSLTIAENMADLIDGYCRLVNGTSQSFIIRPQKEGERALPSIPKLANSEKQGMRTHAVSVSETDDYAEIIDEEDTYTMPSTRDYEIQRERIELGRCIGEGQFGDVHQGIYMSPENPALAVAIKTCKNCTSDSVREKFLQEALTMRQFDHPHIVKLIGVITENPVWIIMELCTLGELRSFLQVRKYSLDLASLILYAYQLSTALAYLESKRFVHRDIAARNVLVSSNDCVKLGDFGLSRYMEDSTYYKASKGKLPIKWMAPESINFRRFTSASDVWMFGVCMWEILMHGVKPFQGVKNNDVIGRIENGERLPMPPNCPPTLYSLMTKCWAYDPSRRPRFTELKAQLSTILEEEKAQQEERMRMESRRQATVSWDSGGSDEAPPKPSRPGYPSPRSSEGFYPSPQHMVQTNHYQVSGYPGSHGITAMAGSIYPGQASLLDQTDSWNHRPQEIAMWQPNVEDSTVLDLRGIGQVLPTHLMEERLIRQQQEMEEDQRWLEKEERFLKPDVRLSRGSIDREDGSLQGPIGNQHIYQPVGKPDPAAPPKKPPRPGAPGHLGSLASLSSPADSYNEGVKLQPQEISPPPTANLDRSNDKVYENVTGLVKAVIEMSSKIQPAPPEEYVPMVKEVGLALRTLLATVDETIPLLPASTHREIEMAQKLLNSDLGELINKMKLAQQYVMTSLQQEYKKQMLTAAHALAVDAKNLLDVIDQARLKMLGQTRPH

Chain of human JAK2 (O60674 815-1132): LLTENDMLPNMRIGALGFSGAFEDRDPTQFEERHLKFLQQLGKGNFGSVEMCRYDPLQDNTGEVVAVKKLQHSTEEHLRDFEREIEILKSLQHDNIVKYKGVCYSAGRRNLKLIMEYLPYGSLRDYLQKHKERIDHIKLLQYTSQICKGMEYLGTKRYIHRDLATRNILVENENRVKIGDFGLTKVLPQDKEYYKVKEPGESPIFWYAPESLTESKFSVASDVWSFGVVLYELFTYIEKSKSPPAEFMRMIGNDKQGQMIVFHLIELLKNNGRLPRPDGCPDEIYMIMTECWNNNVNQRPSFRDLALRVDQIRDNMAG

SMILES	IC50 (human JAK2)	IC50 (human FAK)
COc1cccc(Nc2nc3c(-c4ccc(S(C)(=O)=O)cc4)cccn3n2)c1 [Example 40, [8-(4-Methanesulfonyl-phenyl)-[1,2,4]triazolo[1,5-a]pyridin-2-yl]-(3-methoxy-phenyl)-amine]	1 nM	1360 nM
COc1ccc(Nc2nc3c(-c4cnn(S(C)(=O)=O)c4)cccn3n2)cc1 [Example 42, [8-(1-Methanesulfonyl-1H-pyrazol-4-yl)-[1,2,4]triazolo[1,5-a]pyridin-2-yl]-(4-methoxy-phenyl)-amine]	3 nM	507 nM
CS(=O)(=O)c1ccc(-c2cccn3nc(Nc4ccc(CN5CCOCC5)cc4)nc23)cc1 [Example 43, [8-(4-Methanesulfonyl-phenyl)-[1,2,4]triazolo[1,5-a]pyridin-2-yl]-(4-morpholin-4-ylmethyl-phenyl)-amine]	2.2 nM	1170 nM
CN1CCN(Cc2ccc(Nc3nc4c(-c5ccc(S(C)(=O)=O)cc5)cccn4n3)cc2)CC1 [Example 44, [8-(4-Methanesulfonyl-phenyl)-[1,2,4]triazolo[1,5-a]pyridin-2-yl]-[4-(4-methyl-piperazin-1-ylmethyl)-phenyl]-amine]	2.4 nM	1130 nM
CS(=O)(=O)c1ccc(-c2cccn3nc(Nc4cccc(CN5CCOCC5)c4)nc23)cc1 [Example 46, [8-(4-Methanesulfonyl-phenyl)-[1,2,4]triazolo[1,5-a]pyridin-2-yl]-(3-morpholin-4-ylmethyl-phenyl)-amine]	0.6 nM	953 nM
COc1ccc(Nc2nc3c(Nc4ccccc4S(C)(=O)=O)cccn3n2)cc1 [Example 47, N(8)-(2-Methanesulfonyl-phenyl)-N(2)-(4-methoxy-phenyl)-[1,2,4]triazolo[1,5-a]pyridine-2,8-diamine]	12.8 nM	3000 nM
CN1CCN(c2ccc(Nc3nc4c(-c5ccc(CS(C)(=O)=O)cc5)cccn4n3)cc2)CC1 [Example 48, [8-(4-Methanesulfonylmethyl-phenyl)-[1,2,4]triazolo[1,5-a]pyridin-2-yl]-[4-(4-methyl-piperazin-1-yl)-phenyl]-amine]	0.7 nM	1720 nM
CN1CCN(C2CCN(c3ccc(Nc4nc5c(-c6ccc(S(C)(=O)=O)cc6)cccn5n4)cc3)CC2)CC1 [Example 51, [8-(4-Methanesulfonyl-phenyl)-[1,2,4]triazolo[1,5-a]pyridin-2-yl]-{4-[4-(4-methyl-piperazin-1-yl)-piperidin-1-yl]-phenyl}-amine]	1.8 nM	168 nM
CC(C)S(=O)(=O)c1ccc(-c2cccn3nc(Nc4ccc(N5CCN(C)CC5)cc4)nc23)cc1 [Example 52, [4-(4-Methyl-piperazin-1-yl)-phenyl]-{8-[4-(propane-2-sulfonyl)-phenyl]-[1,2,4]triazolo[1,5-a]pyridin-2-yl}-amine]	2.1 nM	306 nM
CC(C)S(=O)(=O)c1ccc(-c2cccn3nc(Nc4cccc(N5CCN(C)CC5)c4)nc23)cc1 [Example 53, [3-(4-Methyl-piperazin-1-yl)-phenyl]-{8-[4-(propane-2-sulfonyl)-phenyl]-[1,2,4]triazolo[1,5-a]pyridin-2-yl}-amine]	1.3 nM	865 nM
COc1ccccc1-c1cccn2nc(Nc3ccc(N4CCN(C)CC4)cc3)nc12 [Example 55, [8-(2-Methoxy-phenyl)-[1,2,4]triazolo[1,5-a]pyridin-2-yl]-[4-(4-methyl-piperazin-1-yl)-phenyl]-amine]	38.4 nM	3000 nM
COc1ccccc1-c1cccn2nc(Nc3cccc(N4CCN(C)CC4)c3)nc12 [Example 56, [8-(2-Methoxy-phenyl)-[1,2,4]triazolo[1,5-a]pyridin-2-yl]-[3-(4-methyl-piperazin-1-yl)-phenyl]-amine]	26.8 nM	3000 nM
CN1CCN(C2CCN(c3cccc(Nc4nc5c(-c6ccc(S(C)(=O)=O)cc6)cccn5n4)c3)CC2)CC1 [Example 58, [8-(4-Methanesulfonyl-phenyl)-[1,2,4]triazolo[1,5-a]pyridin-2-yl]-{3-[4-(4-methyl-piperazin-1-yl)-piperidin-1-yl]-phenyl}-amine]	1.5 nM	2390 nM
CN1CCN(c2ccc(Nc3nc4c(-c5cccc(S(C)(=O)=O)c5)cccn4n3)cc2)CC1 [Example 59, [8-(3-Methanesulfonyl-phenyl)-[1,2,4]triazolo[1,5-a]pyridin-2-yl]-[4-(4-methyl-piperazin-1-yl)-phenyl]-amine]	3.3 nM	2590 nM
CN1CCN(c2cccc(Nc3nc4c(-c5cccc(S(C)(=O)=O)c5)cccn4n3)c2)CC1 [Example 60, [8-(3-Methanesulfonyl-phenyl)-[1,2,4]triazolo[1,5-a]pyridin-2-yl]-[3-(4-methyl-piperazin-1-yl)-phenyl]-amine]	6.4 nM	1260 nM
CN1CCC(c2cccc(Nc3nc4c(-c5ccc(S(C)(=O)=O)cc5)cccn4n3)c2)CC1 [Example 61, [8-(4-Methanesulfonyl-phenyl)-[1,2,4]triazolo[1,5-a]pyridin-2-yl]-[3-(1-methyl-piperidin-4-yl)-phenyl]-amine]	0.7 nM	265 nM
CN1CCN(c2ccc(Nc3nc4c(-c5ccc(N(C)S(C)(=O)=O)cc5)cccn4n3)cc2)CC1 [Example 62, N-Methyl-N-(4-{2-[4-(4-methyl-piperazin-1-yl)-phenylamino]-[1,2,4]triazolo[1,5-a]pyridin-8-yl}-phenyl)-methanesulfonamide]	0.6 nM	999 nM
CN1CCN(c2cccc(Nc3nc4c(-c5ccc(N(C)S(C)(=O)=O)cc5)cccn4n3)c2)CC1 [Example 63, N-Methyl-N-(4-{2-[3-(4-methyl-piperazin-1-yl)-phenylamino]-[1,2,4]triazolo[1,5-a]pyridin-8-yl}-phenyl)-methanesulfonamide]	0.6 nM	1350 nM
CN1CCN(c2ccc(Nc3nc4c(-c5ccc(C(F)(F)F)cc5)cccn4n3)cc2)CC1 [Example 64, [4-(4-Methyl-piperazin-1-yl)-phenyl]-[8-(4-trifluoromethyl-phenyl)-[1,2,4]triazolo[1,5-a]pyridin-2-yl]-amine]	3.1 nM	1250 nM
CN1CCN(c2ccc(Nc3nc4c(-c5ccccc5S(C)(=O)=O)cccn4n3)cc2)CC1 [Example 66, [8-(2-Methanesulfonyl-phenyl)-[1,2,4]triazolo[1,5-a]pyridin-2-yl]-[4-(4-methyl-piperazin-1-yl)-phenyl]-amine]	1330 nM	10000 nM
CN1CCN(c2ccc(Nc3nc4cccc(-c5ccc(CN6CCS(=O)(=O)CC6)cc5)n4n3)cc2)CC1 [Example 70, 5-{4-[(1,1-dioxidothiomorpholin-4-yl)methyl]phenyl}-N-[4-(4-methylpiperazin-1-yl)phenyl][1,2,4]triazolo[1,5-a]pyridin-2-amine]	1.1 nM	291 nM
CN1CCN(c2cccc(Nc3nc4cccc(-c5ccc(CN6CCS(=O)(=O)CC6)cc5)n4n3)c2)CC1 [Example 71, 5-{4-[(1,1-dioxidothiomorpholin-4-yl)methyl]phenyl}-N-[3-(4-methylpiperazin-1-yl)phenyl][1,2,4]triazolo[1,5-a]pyridin-2-amine]	0.8 nM	502 nM
